Experimental data reported in patent US20260015363A1, “SUBSTITUTED PYRIMIDINE-FUSED RING INHIBITOR, METHOD FOR PREPARING SAME, AND USE THEREOF” (Suzhou Zelgen Biopharmaceuticals Co., Ltd., priority 2022, published 2026).

Experiments:
AsPC-1 (G12D) = experiment: KRAS mutant cell proliferation inhibition assay (CellTiter-Glo 3D), AsPC-1; format: cell-based, human; conditions: Homo sapiens, ASPC1, 168 h, AsPC-1 (G12D) cells, 7 days
Method: (§1) Positive control: MRTX1133
(§2) • (a) The cells were thawed in T75 cell culture flasks: • (b) When 80%-90% cell confluence was achieved, the cells were passaged.
(§3) The diluted test compound was added to a 384-well cell culture plate using a nanoliter pipetting system, and replicate wells were set. An equal volume of medium was added to the positive control group; an equal volume of DMSO was added to the negative control group. The plate was centrifuged at 1000 rpm at room temperature for 1 min.
(§4) The cells were seeded into a) 384-well culture plate. An equal volume of cells was added to the negative control group, and only an equal volume of medium was added to the positive control group. The plate was centrifuged at 1000 rpm at room temperature for 1 min. The final DMSO concentration in the final compound was 0.5%. The plate was incubated in a thermostatic incubator at 37° C. with 5% CO2 for 7 days.
(§5) CellTiter-Glo® 3D was added to b) 384-well cell culture plate at 20 μL/well. The plate was shaken at 320 rpm in the dark for 20 min, and incubated at room temperature in the dark for 2 h. The luminescence values were read using an Envision multi-mode microplate reader.
(§6) The inhibition rates (IRs) of the test compounds were calculated according to the following formula: IR (%)=(1−(RLU compound−RLU blank control)/(RLU vehicle control−RLU blank control))×100%. The inhibition rates of the compounds at different concentrations were calculated in Excel, and then inhibition curves were plotted and relevant parameters including minimum inhibition rate, maximum inhibition rate and IC50 were calculated using GraphPad Prism software.

H727 (G12V) = experiment: KRAS mutant cell proliferation inhibition assay (CellTiter-Glo 3D), H727; format: cell-based, human; conditions: Homo sapiens, NCI-H727, 168 h, H727 (G12V) cells, 7 days
Method: as §1, §2, §3, §4, §5, §6

SW480 (G12V) = experiment: KRAS mutant cell proliferation inhibition assay (CellTiter-Glo 3D), SW480; format: cell-based; conditions: Homo sapiens, 168 h, SW480 (G12V) cells, 7 days
Method: as §1, §2, §3, §4, §5, §6

PSN-1 (G12R) = experiment: KRAS mutant cell proliferation inhibition assay (CellTiter-Glo 3D), PSN-1; format: cell-based; conditions: Homo sapiens, PSN1, 168 h, PSN-1 (G12R) cells, 7 days
Method: as §1, §2, §3, §4, §5, §6

MNK1 (WT) = experiment: Cell proliferation inhibition assay (CellTiter-Glo 3D), MNK1; format: cell-based, human; conditions: Homo sapiens, 168 h, MNK1 (WT) cells, 7 days
Method: as §1, §2, §3, §4, §5, §6

Row | Structure (SMILES) | IC50 (AsPC-1 (G12D)) | IC50 (H727 (G12V)) | IC50 (SW480 (G12V)) | IC50 (PSN-1 (G12R)) | IC50 (MNK1 (WT))
1 | CCc1c(F)ccc2cc(O)cc(-c3ncc4c(N5CCCC6(CCO6)C5)nc(OC[C@@]56CCCN5C[C@@]5(CC5(F)F)C6)nc4c3F)c12 (stereo partly drawn) [Example A-16, 4-(2-(((1S,7a'S)-2,2-Difluorodihydro-1′H,3′H-spiro[cyclopropane-1,2′-pyrrolizin]-7a′ (5′H)-yl)methoxy)-8-fluoro-4-(1-oxa-6-azaspiro[3.5]nonan-6-yl)pyrido[4,3-d]pyrimidin-7-yl)-5-ethyl-6-fluoronaphthalen-2-ol] | 11.4 nM | 45.1 nM | 68.2 nM | 1000 nM | 22.7 nM
2 | C#Cc1c(F)ccc2cc(O)cc(-c3ncc4c(N5CC6CCC(C5)N6)nc(OC[C@@]56CCCN5C[C@H](F)C6)nc4c3F)c12 [MRTX1133, reference compound] | 10.1 nM | 2270 nM | 432 nM | > 10000 nM | 319 nM
3 | CCc1c(F)ccc2cc(O)cc(-c3ncc4c(N5CCC[C@@]6(C5)NC(=O)NC6=O)nc(OC[C@@]56CCCN5C[C@@]5(CC5(F)F)C6)nc4c3F)c12 [Example A-26, (S)-7-(2-(((1S,7a'S)-2,2-Difluorodihydro-1′H,3′H-spiro[cyclopropane-1,2′-pyrrolizin]-7a′ (5′H)-yl)methoxy)-7-(8-ethyl-7-fluoro-3-hydroxynaphthalen-1-yl)-8-fluoropyrido[4,3-d]pyrimidin-4-yl)-1,3,7-triazaspiro[4.5]decane-2,4-dione] | > 1000 nM | 7370 nM |  | > 10000 nM | 1620 nM
4 | CCc1c(F)ccc2cc(O)cc(-c3ncc4c(N5CCOCC(C)(O)C5)nc(OC[C@@]56CCCN5C[C@@]5(CC5(F)F)C6)nc4c3F)c12 (stereo partly drawn) [Example A-38, 4-(2-(((1S,7a'S)-2,2-Difluorodihydro-1′H,3′H-spiro[cyclopropane-1,2′-pyrrolizin]-7a′ (5′H)-yl)methoxy)-7-(8-ethyl-7-fluoro-3-hydroxynaphthalen-1-yl)-8-fluoropyrido[4,3-d]pyrimidin-4-yl)-6-methyl-1.4-oxazenan-6-ol] | 31.6 nM | 119 nM |  | > 10000 nM | 21.4 nM
